{"source": "patent US20100042137A1", "about": "“ACUPUNCTURE AND ACUPRESSURE THERAPIES” (priority 2008, published 2010)", "key": {"human patients [1]": {"test_system": "human patients", "experiment": "Treatments with saline; pain level x/10", "assay_type": "in vivo", "settings": "general observation in parenthesis", "source_text": "(i) A patient presented with a 2/10 rotator cuff tendinopathy.\n(ii) 5/10 sacroiliac strain.\n(iv) A patient presented with a 6/10 pain globally from severe systemic lupus erthymatosis (SLE).\n(v) A patient presented with a 7/10 pain right medial knee pain from pes anserine bursitis."}, "human patients [2]": {"test_system": "human patients"}, "Patients with Arthritis": {"test_system": "Patients with Arthritis", "experiment": "Treatment of patients with arthritis by injection at or near acupuncture points; pain level x/10", "assay_type": "in vivo, human", "source_text": "Treatment of Patients with Arthritis\n(i) A patient presented with a 5/10 pain from severe rheumatoid arthritis.\n(ii) A patient presented with an 8/10 pain from severe rheumatoid arthritis.\n(iii) A patient presented with 8/10 pain from severe rheumatoid arthritis with diffuse joint stiffness, swelling and tenderness.\n(i) A patient presented with a pain level of 10/10 from cervical strain due to seronegative rheumatoid arthritis.\n(ii) A patient presented with a 7.5/10 pain globally from a seronegative arthritis (unspecified).\nA patient presented with a 5/10 pain from bilateral post-traumatic subtalar arthritis."}, "[3]": {"test_system": "Patients with Back, Shoulder, Leg Pain", "experiment": "Treatment of patients with back, shoulder, leg pain by injection; pain level x/10", "assay_type": "in vivo, human", "description": "(iv) A patient presented initially with 9/10 mechanical low back pain.\n(v) A patient with an L5 radiculopathy complained of a 6/10 low back pain which was unrelieved by trigger point injections, sacroiliac injections and epidurals.\n(vii) A patient presented with a 8/10 back pain from lumbar facet arthropathy.\n(viii) A patient presented with an 8/10 back pain with radiation down leg from lumbar radiculopathy.\n(xii) A patient presented with a 9/10 low back pain and 8/10 shoulder and neck pain.\n(ii) A patient presented with a 4/10 pain due to sacroiliac strain.\n(ii) A patient presented with a 4/10 neck pain from cervical degenerative disc disease.\n(iii) A patient presented with a 9/10 pain globally from cervical spondylotic myelopathy."}, "[4]": {"test_system": "Patients with Multiple Indications", "experiment": "Treatment of patients with multiple indications by injection; pain level x/10", "assay_type": "in vivo, human", "settings": "for Pain level After: 2 cc injected"}, "human patients [5]": {"test_system": "human patients", "remark": "listed apart in the source", "description": "(i) 10/10 pain from sacroilitis.\n(ii) 5/10 pain from trochanteric bursitis.\n(iii) 7/10 pain from Morton's neuroma.\n(iv) 5/10 pain from lateral epicondylitis."}, "human patients [6]": {"test_system": "human patients", "experiment": "Treatment with epinephrine or Restylane at specific influential points, also in combination with magnets; pain level x/10", "assay_type": "in vivo", "description": "(i) A patient presented with a 6/10 left ankle pain from gout.\n(ii) A patient presented with an 8/10 pain and stiffness from Parkinson's disease.\n(iii) A patient presented with a 5/10 neck pain and stiffness.\n(iv) A patient presented with a 5/10 neck and upper back pain from syringomyelia.\n(v) A patient presented with a 5.8/10 right shoulder pain from rotator cuff tendinopathy.\n(vi) A patient presented with a 2/10 shoulder pain from a rotator cuff tendinopathy.\n(vii) A patient presented with a 10/10 frontal sinus headache which was present for over 1 week.\n(viii) A patient presented with a 4/10 tension headache over the temples and neck with photophobia on which is present 2-3 times a week on average.\n(ix) A patient presented with 10/10 pain from bilateral tarsal tunnel syndrome.\n(x) A patient with chronic radicular left leg pain 6/10.\n(i) A patient presented with a 5/10 pain globally especially in the low back.\n(ii) A patient presented with a 5/10 pain in the mid back who had never had acupuncture before.\n(iii) A patient presented with a 10/10 pain in an amputee with a compound fracture of their femur.\n(i) A patient presented with common peroneal neuropathy with a pain level of 9/10.\n(ii) Patient with 9/10 back pain from sacroilitis."}}, "note": "Like-named read-outs stand apart in the source and are kept apart here."}
{"compound": "CCN(CC)CC(=O)Nc1c(C)cccc1C", "note": "[lidocaine]", "values": [{"measurement": "effect of unilateral injection over the GH joint", "setting": "human patients [1]", "value": "seems to provide analgesia on the opposite side of the body"}, {"measurement": "drooling after injection", "setting": "human patients [2]; excessive drooling (sialorrhea), 0.1 cc lidocaine 2% near Li 4", "value": "cessation of drooling"}, {"measurement": "effect on sleepiness", "setting": "human patients [2]; narcolepsy, falling asleep in the office, 0.1 cc 2% lidocaine near Li 4", "value": "noticeably woke patient up"}, {"measurement": "duration of cessation of drooling", "setting": "human patients [2]; same patient", "value": 2, "unit": "weeks"}, {"measurement": "duration of effect", "setting": "human patients [2]; same patient", "value": "lasted throughout the day"}, {"measurement": "pain after injection", "setting": "Patients with Arthritis; 6/10 shoulder pain (glenohumeral arthritis) and 7/10 low back pain (lumbar stenosis), 2 cc into GH joints bilaterally", "value": "complete pain relief"}, {"measurement": "pain after injection", "setting": "Patients with Arthritis; 9/10 elbow pain (radiohumeral arthritis) and 10/10 mechanical low back pain, 2 cc into GH joints near Lu 1 bilaterally", "value": "complete relief"}, {"measurement": "pain after injection", "setting": "Patients with Arthritis; bilateral post-traumatic subtalar arthritis, 5/10 before, 2 cc bilaterally s.c. over GH joints near Lu 1", "value": "disappearance of all pain"}, {"measurement": "pain level after injection", "setting": "Patients with Arthritis; cervical strain due to seronegative rheumatoid arthritis, 10/10 before, 1 cc bilaterally s.c. over GH joints", "value": "4/10"}, {"measurement": "pain after injection", "setting": "Patients with Arthritis; right glenohumeral osteoarthritis 9/10 and 8/10 low back pain (sacroiliac strain), 2 ccs bilaterally into GH joints, agent not given, heading: Injection of Lidocaine", "value": "total relief"}, {"measurement": "duration of pain relief", "setting": "Patients with Arthritis; same patient as E13", "value": 3, "unit": "days"}, {"measurement": "duration of pain relief", "setting": "Patients with Arthritis; same patient as E15", "value": 1, "unit": "week"}, {"measurement": "pain level after injection", "setting": "Patients with Arthritis; same patient, 4/10 before, another 2 cc lidocaine bilaterally s.c. over GH joints", "value": "3/10"}, {"measurement": "pain after injection", "setting": "Patients with Arthritis; seronegative arthritis (unspecified), 7.5/10 globally before, 2 cc bilaterally s.c. over GH joints", "value": "disappearance of all pain"}, {"measurement": "pain after injection", "setting": "Patients with Arthritis; severe RA, s.c. over GH joints bilaterally", "value": "resolution of all pain"}, {"measurement": "pain after injection", "setting": "Patients with Arthritis; severe rheumatoid arthritis, 5/10 before, 2 cc bilaterally s.c. over glenohumeral (GH) joints near Lu 1", "value": "disappearance of all pain and return of mobility"}, {"measurement": "pain level after injection", "setting": "[3]; 4/10 neck pain from cervical degenerative disc disease, 2 cc bilaterally s.c. over GH joints", "value": "2/10"}, {"measurement": "pain after injection", "setting": "[3]; 4/10 pain due to sacroiliac strain, 2 cc bilaterally s.c. over GH joints", "value": "disappearance of all pain"}, {"measurement": "pain after injection", "setting": "[3]; 5/10 back pain due to rupture of the annulus, 2 cc 1% lidocaine into GH joints bilaterally", "value": "no relief"}, {"measurement": "pain level after injection", "setting": "[3]; 6/10 mechanical low back pain before, 2 cc bilaterally into GH joints", "value": "about 3/10"}, {"measurement": "pain relief", "setting": "[3]; 6/10 mechanical low back pain, 2 cc bilaterally into GH joints", "value": "about 50%"}, {"measurement": "pain level after injection", "setting": "[3]; 7/10 low back pain due to SI strain before, 2 cc into GH joints bilaterally", "value": "4/10"}, {"measurement": "pain level after injection", "setting": "[3]; 8/10 back pain with radiation down leg, lumbar radiculopathy, 2 cc bilaterally s.c. over GH joints", "value": "1/10"}, {"measurement": "pain level after injection", "setting": "[3]; 9/10 mechanical low back pain before, 2 cc bilaterally into GH joints, agent not given, heading: Injection of Lidocaine", "value": "4/10"}, {"measurement": "pain after injection", "setting": "[3]; lumbar facet arthropathy, s.c. over GH joints bilaterally", "value": "resolution of pain"}, {"measurement": "follow-up of pain relief", "setting": "[3]; same patient as E28", "value": "still pain free one week later"}, {"measurement": "other effects stated by patient", "setting": "[3]; same patient as E34", "value": "felt more awake, alert and had a sense of well-being"}, {"measurement": "shoulder pain level after injection", "setting": "[4]; 6/10 bilateral shoulder pain, glenohumeral arthritis, 4 ccs into GH joints bilaterally", "value": "1/10"}, {"measurement": "pain relief", "setting": "[4]; 6/10 shoulder pain (bilateral rotator cuff tendinopathy) and 6/10 low back pain (lumbar spinal stenosis), 2 cc bilaterally into GH joints", "value": "about 50%"}, {"measurement": "pain level after injection, right side of the body", "setting": "[4]; 10/10 post surgical pain from tracheostomy and 6/10 coccygodynia, 2 cc s.c. bilaterally over GH joint", "value": "2/10"}, {"measurement": "Pain level After", "setting": "[4]; Cervical spondylotic myelopathy, Before 9/10", "value": "1/10"}, {"measurement": "Pain level After", "setting": "[4]; Chronic pelvic pain of non menstrual origin, Before 6/10", "value": 0}, {"measurement": "Pain level After", "setting": "[4]; Dermatomyositis, Before 6/10", "value": "2/10"}, {"measurement": "Pain level After", "setting": "[4]; Knee pain, Before 5/10", "value": 0}, {"measurement": "Pain level After", "setting": "[4]; Lumbar radiculopathy, herniated disk and scatia, Before 8/10", "value": 0}, {"measurement": "Pain level After", "setting": "[4]; Multiple Sclerois with pain in legs, Before 7/10", "value": 0}, {"measurement": "Pain level After", "setting": "[4]; Peptic Ulcer with gnawing epigastric pain, Before 8/10", "value": 0}, {"measurement": "Pain level After", "setting": "[4]; Plantar Fasciitis, Before 6/10", "value": 0}, {"measurement": "Pain level After", "setting": "[4]; Reflex sympathetic dystophy, Before 6/10", "value": 0}, {"measurement": "other effects reported by patient", "setting": "[4]; same patient", "value": "felt more awake, had a better mood, and could breathe easier"}, {"measurement": "pain level after injection", "setting": "[4]; same patient as E44, 6/10 before", "value": "3/10"}, {"measurement": "low back pain level after injection", "setting": "[4]; same patient, 6/10 low back pain, lumbar spinal stenosis, 4 ccs", "value": "2/10"}, {"measurement": "pain after further injection", "setting": "[4]; same patient, another 2 cc over only the left GH joint", "value": "disappearance of all pain"}, {"measurement": "pain after injection", "setting": "human patients [5]; 5/10 pain from lateral epicondylitis, 0.1 cc 2% lidocaine s.c. over lateral epicondyle", "value": "complete pain relief"}, {"measurement": "pain after injection", "setting": "human patients [5]; 5/10 pain from trochanteric bursitis, 0.1 cc 2% lidocaine bilaterally s.c. over trochanteric bursae", "value": "complete pain resolution"}, {"measurement": "symptoms after injection", "setting": "human patients [5]; 7/10 pain from Morton's neuroma, 0.1 cc 2% lidocaine s.c. on dorsal foot between metatarsal heads", "value": "complete resolution of symptoms"}, {"measurement": "pain after injection", "setting": "human patients [5]; 10/10 pain from sacroilitis, 0.1 cc 2% lidocaine s.c. over the sacroiliac joints", "value": "immediate pain cessation and return to full mobility"}, {"measurement": "duration of complete pain relief", "setting": "human patients [5]; same patient", "value": 1, "unit": "days"}, {"measurement": "duration of complete pain resolution", "setting": "human patients [5]; same patient", "value": 3, "unit": "weeks"}, {"measurement": "duration of complete resolution of symptoms", "setting": "human patients [5]; same patient", "value": 2, "unit": "weeks"}, {"measurement": "pain relief still complete at time later", "setting": "human patients [5]; same patient, magnets put over the two injection sites afterwards", "value": "≥ 10", "unit": "days"}, {"measurement": "pain after injection", "setting": "human patients [6]; 9/10 back pain from sacroilitis, 0.1 cc lidocaine 2% bilaterally s.c. over sacroiliac joints (B 47, B 23)", "value": "disappearance of all back pain"}, {"measurement": "pain after therapeutic magnets put over the sites of injection", "setting": "human patients [6]; same patient", "value": "again disappeared"}, {"measurement": "time after which the pain started to come back", "setting": "human patients [6]; same patient", "value": 2, "unit": "days"}]}
{"compound": "C[C@]12C=CC(=O)C=C1CC[C@H]1[C@@H]3C[C@@H](O)[C@](O)(C(=O)CO)[C@@]3(C)C[C@H](O)[C@@]12F", "note": "[triamcinolone]", "values": [{"measurement": "pain after injection", "setting": "[4]; cervical stenosis 8/10 and lumbosacral strain 7/10, triamcinolone only into GH joints bilaterally", "value": "complete relief"}]}
